# Legend:
# [1] = test system: HCV replicon I389luc-ubi-neo/NS3-3'/5.1; experiment: Anti-HCV replicon assay (luciferase activity) in Huh-5-2 cells; format: cell-based, Hepatitis C virus; settings: Hepatitis C virus, Huh-5-2, 72 h, concentration required to inhibit luciferase activity in the replicon system by 50%
# Outline: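 Huh-5-2 cells carrying the luciferase HCV replicon, seeded 24 h, then exposed to serial compound dilutions without G418 for 72 h at 37° C, 5% CO2. Replication read as luciferase luminescence, expressed as percentage of untreated cultures; culture density measured in parallel by MTS.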
# [2] = Proliferation of exponentially growing Huh-5-2 cells (MTS method); settings: human, CC50, concentration required to inhibit the proliferation of exponentially growing Huh-5-2 cells by 50%; Table 2
# Experimental: Cells were seeded at a density of 7000 cells per well in 96 well View Plate™ (Packard) in medium containing the same components as described above, except for G418. Cells were allowed to adhere and proliferate for 24 hr. At that time, culture medium was removed and serial dilutions of the test compounds were added in culture medium lacking G418. Interferon alfa 2a (500 IU) was included as a positive control. Plates were further incubated at 37° C. and 5% CO2 for 72 hours. Replication of the HCV replicon in Huh-5 cells results in luciferase activity in the cells. Luciferase activity is measured by adding 50 μl of 1×Glo-lysis buffer (Promega) for 15 minutes followed by 50 ul of the Steady-Glo Luciferase assay reagent (Promega). Luciferase activity is measured with a luminometer and the signal in each individual well is expressed as a percentage of the untreated cultures. […] Instead the density of the culture is measured by means of the MTS method (Promega).
Compound,IC50 [1],CC50 at 72 h [2]
"COCCN1C(=O)c2ccccc2C(C(=O)Nc2cccc(OC)c2)C1CC1CCOCC1 (stereo not shown) [C97, 2-(2-methoxyethyl)-N-(3-methoxyphenyl)-1-oxo-3-((tetrahydro-2H-pyran-4-yl)methyl)-1,2,3,4-tetrahydroisoquinoline-4-carboxamide]",51.6 µg/mL,80 µg/mL
"COCCN1C(=O)c2c(ccc(OC)c2F)C(C(=O)Nc2ccc(-n3cccc3)cc2)C1c1cccs1 (stereo not shown) [C150, N-(4-(1H-pyrrol-1-yl)phenyl)-8-fluoro-7-methoxy-2-(2-methoxyethyl)-1-oxo-3-(thiophen-2-yl)-1,2,3,4-tetrahydroisoquinoline-4-carboxamide]",0.08 µg/mL,> 125 µg/mL
"COCCN1C(=O)c2ccccc2C(C(=O)Nc2cc(C)no2)C1c1cccs1 (stereo not shown) [C127, 2-(2-methoxyethyl)-N-(3-methylisoxazol-5-yl)-1-oxo-3-(thiophen-2-yl)-1,2,3,4-tetrahydroisoquinoline-4-carboxamide]",10.3 µg/mL,87.2 µg/mL
"COCCN1C(=O)c2ccccc2C(C(=O)n2c(=O)oc3ccc(N)cc32)C1c1cccs1 (stereo not shown) [C207, 5-amino-3-(−2-(2-methoxyethyl)-1-oxo-3-(thiophen-2-yl)-1,2,3,4-tetrahydroisoquinoline-4-carbonyl)benzo[d]oxazol-2(3H)-one]",27.4 µg/mL,72.3 µg/mL
"COCCN1C(=O)c2ccccc2C(C(=O)Nc2ccc(-n3cncn3)cc2)C1c1cccs1 (stereo not shown) [C167, N-(4-(1H-1,2,4-triazol-1-yl)phenyl)-2-(2-methoxyethyl)-1-oxo-3-(thiophen-2-yl)-1,2,3,4-tetrahydroisoquinoline-4-carboxamide]",0.12 µg/mL,60 µg/mL
"COCCN1C(=O)c2cccc(C)c2C(C(=O)Nc2cccc(OC)c2)C1c1cccs1 (stereo not shown) [C39, 2-(2-Methoxyethyl)-N-(3-methoxyphenyl)-5-methyl-1-oxo-3-(thiophen-2-yl)-1,2,3,4-tetrahydroisoquinoline-4-carboxamide]",1.3 µg/mL,80 µg/mL
"COCCN1C(=O)c2ccccc2C(C(=O)Nc2cccc(N3CCCC3)c2)C1c1cccs1 (stereo not shown) [C122, 2-(2-methoxyethyl)-1-oxo-N-(3-(pyrrolidin-1-yl)phenyl)-3-(thiophen-2-yl)-1,2,3,4-tetrahydroisoquinoline-4-carboxamide]",0.37 µg/mL,81.3 µg/mL
"COCCN1C(=O)c2ccccc2C(C(=O)Nc2ccc(CN3CCCCC3)cc2)C1c1cccs1 (stereo not shown) [C216, 2-(2-methoxyethyl)-1-oxo-N-(4-(piperidin-1-ylmethyl)phenyl)-3-(thiophen-2-yl)-1,2,3,4-tetrahydroisoquinoline-4-carboxamide]",2.57 µg/mL,10.9 µg/mL
"COCCN1C(=O)c2ccccc2C(C(=O)Nc2nc(C(C)(C)C)cs2)C1c1cccs1 (stereo not shown) [C177, N-(4-tert-butylthiazol-2-yl)-2-(2-methoxyethyl)-1-oxo-3-(thiophen-2-yl)-1,2,3,4-tetrahydroisoquinoline-4-carboxamide]",0.5 µg/mL,3.16 µg/mL
"COCCN1C(=O)c2ccccc2C(C(=O)Nc2cccc(OC)c2)C1c1ccco1 (stereo not shown) [C6, 3-(furan-2-yl)-2-(2-methoxyethyl)-N-(3-methoxyphenyl)-1-oxo-1,2,3,4-tetrahydroisoquinoline-4-carboxamide]",6.3 µg/mL,69.6 µg/mL
"COCCN1C(=O)c2ccccc2C(C(=O)Nc2cccc(OC)c2)C1c1cccc(F)c1 (stereo not shown) [C8, 3-(3-Fluorophenyl)-2-(2-methoxyethyl)-N-(3-methoxyphenyl)-1-oxo-1,2,3,4-tetrahydroisoquinoline-4-carboxamide]",21.8 µg/mL,54.5 µg/mL
"COCCN1C(=O)c2ccccc2C(C(=O)Nc2cccc(OC)c2)C1c1csc(C)n1 (stereo not shown) [C98, 2-(2-methoxyethyl)-N-(3-methoxyphenyl)-3-(2-methylthiazol-4-yl)-1-oxo-1,2,3,4-tetrahydroisoquinoline-4-carboxamide]",50.3 µg/mL,80.9 µg/mL
"COc1cccc(NC(=O)C2c3ccccc3C(=O)N(Cc3ccccc3)C2c2cccs2)c1 (stereo not shown) [C37, 2-Benzyl-N-(3-methoxyphenyl)-1-oxo-3-(thiophen-2-yl)-1,2,3,4-tetrahydroisoquinoline-4-carboxamide]",1.5 µg/mL,92.7 µg/mL
"C#CC1C(C(=O)Nc2cccc(OC)c2)c2ccccc2C(=O)N1CCOC (stereo not shown) [C83, 3-ethynyl-2-(2-methoxyethyl)-N-(3-methoxyphenyl)-1-oxo-1,2,3,4-tetrahydroisoquinoline-4-carboxamide]",0.4 µg/mL,70 µg/mL
"COCCN1C(=O)c2ccccc2C(C(=O)Nc2cc(OC)cc(OC)c2)C1c1cccs1 (stereo not shown) [C130, N-(3,5-dimethoxyphenyl)-2-(2-methoxyethyl)-1-oxo-3-(thiophen-2-yl)-1,2,3,4-tetrahydroisoquinoline-4-carboxamide]",0.8 µg/mL,91.8 µg/mL
"CCc1nnc(NC(=O)C2c3ccccc3C(=O)N(CCOC)C2c2cccs2)o1 (stereo not shown) [C125, N-(5-ethyl-1,3,4-oxadiazol-2-yl)-2-(2-methoxyethyl)-1-oxo-3-(thiophen-2-yl)-1,2,3,4-tetrahydroisoquinoline-4-carboxamide]",7.3 µg/mL,53.6 µg/mL
"COCCN1C(=O)c2cc(OC)ccc2C(C(=O)Nc2cccc(OC)c2)C1c1cccs1 (stereo not shown) [C50, 7-Methoxy-2-(2-methoxyethyl)-N-(3-methoxyphenyl)-1-oxo-3-(thiophen-2-yl)-1,2,3,4-tetrahydroisoquinoline-4-carboxamide]",0.7 µg/mL,76.4 µg/mL
"COCCN1C(=O)c2ccccc2C(C(=O)Nc2ccc(-c3nncn3C)cc2)C1c1cccs1 (stereo not shown) [C214, 2-(2-methoxyethyl)-N-(4-(4-methyl-4H-1,2,4-triazol-3-yl)phenyl)-1-oxo-3-(thiophen-2-yl)-1,2,3,4-tetrahydroisoquinoline-4-carboxamide]",5.29 µg/mL,85.3 µg/mL
"COCCN1C(=O)c2ccccc2C(C(=O)Nc2cccc(NC(C)=O)c2)C1c1cccs1 (stereo not shown) [C108, N-(3-acetamidophenyl)-2-(2-methoxyethyl)-1-oxo-3-(thiophen-2-yl)-1,2,3,4-tetrahydroisoquinoline-4-carboxamide]",3.71 µg/mL,77.3 µg/mL
"CCOc1cccc(NC(=O)C2c3ccccc3C(=O)N(CCOC)C2c2cccs2)c1 (stereo not shown) [C59, N-(3-ethoxyphenyl)-2-(2-methoxyethyl)-1-oxo-3-(thiophen-2-yl)-1,2,3,4-tetrahydroisoquinoline-4-carboxamide]",0.3 µg/mL,88.1 µg/mL
"COCCN1C(=O)c2ccccc2C(C(=O)Nc2cccc(-n3cncn3)c2)C1c1cccs1 (stereo not shown) [C200, N-(3-(1H-1,2,4-triazol-1-yl)phenyl)-2-(2-methoxyethyl)-1-oxo-3-(thiophen-2-yl)-1,2,3,4-tetrahydroisoquinoline-4-carboxamide]",0.32 µg/mL,59.4 µg/mL
"COCCN1C(=O)c2ccccc2C(C(=O)Nc2cccc(OC)c2)C1C=C(C)C (stereo not shown) [C120, 2-(2-methoxyethyl)-N-(3-methoxyphenyl)-3-(2-methylprop-1-enyl)-1-oxo-1,2,3,4-tetrahydroisoquinoline-4-carboxamide]",3.28 µg/mL,95.4 µg/mL
"COCCN1C(=O)c2ccccc2C(C(=O)Nc2ccc(C(F)(F)F)cc2)C1c1cccs1 (stereo not shown) [C19, 2-(2-Methoxyethyl)-1-oxo-3-(thiophen-2-yl)-N-(4-(trifluoromethyl)phenyl)-1,2,3,4-tetrahydroisoquinoline-4-carboxamide]",5.2 µg/mL,12.1 µg/mL
"COCCN1C(=O)c2ccccc2C(C(=O)Nc2cnccn2)C1c1cccs1 (stereo not shown) [C163, 2-(2-methoxyethyl)-1-oxo-N-(pyrazin-2-yl)-3-(thiophen-2-yl)-1,2,3,4-tetrahydroisoquinoline-4-carboxamide]",5.23 µg/mL,81 µg/mL
"COc1cccc(NC(=O)C2c3ccccc3C(=O)N(CCOC(C)C)C2c2cccs2)c1 (stereo not shown) [C66, 2-(2-Isopropoxyethyl)-N-(3-methoxyphenyl)-1-oxo-3-(thiophen-2-yl)-1,2,3,4-tetrahydroisoquinoline-4-carboxamide]",1.99 µg/mL,39.2 µg/mL
"COCCN1C(=O)c2ccccc2C(C(=O)Nc2ccc(CO)cc2)C1c1cccs1 (stereo not shown) [C181, N-(4-(hydroxymethyl)phenyl)-2-(2-methoxyethyl)-1-oxo-3-(thiophen-2-yl)-1,2,3,4-tetrahydroisoquinoline-4-carboxamide]",0.25 µg/mL,79.9 µg/mL
"CNC(=O)c1ccc(NC(=O)C2c3ccccc3C(=O)N(CCOC)C2c2cccs2)cc1 (stereo not shown) [C141, 2-(2-methoxyethyl)-N-(4-(methylcarbamoyl)phenyl)-1-oxo-3-(thiophen-2-yl)-1,2,3,4-tetrahydroisoquinoline-4-carboxamide]",0.63 µg/mL,73.8 µg/mL
"COCCN1C(=O)c2ccccc2C(C(=O)Nc2cccc(OC)c2)C1c1sccc1Cl (stereo not shown) [C17, 3-(3-Chlorothiophen-2-yl)-2-(2-methoxyethyl)-N-(3-methoxyphenyl)-1-oxo-1,2,3,4-tetrahydroisoquinoline-4-carboxamide]",3.8 µg/mL,50.4 µg/mL
"COCCN1C(=O)c2ccccc2C(C(=O)Nc2cccc(OC)c2)C1c1cc(C)on1 (stereo not shown) [C103, 2-(2-methoxyethyl)-N-(3-methoxyphenyl)-3-(5-methylisoxazol-3-yl)-1-oxo-1,2,3,4-tetrahydroisoquinoline-4-carboxamide]",40.4 µg/mL,75.2 µg/mL

# Reference: US20110224208A1, “NOVEL INHIBITORS OF FLAVIVIRUS REPLICATION” (KATHOLIEKE UNIVERSITEIT LEUVEN, K.U. LEUVEN R&D, priority 2008, published 2011)
